Here are results for two compounds from patent publication US4816438A, “Insulin-selective somatostatin analogs” (The Salk Institute for Biological Studies, priority 1987, dated 1989).

For test [1] the following is noted: synthetic SS-28; literature report; cited from earlier work.
Test [2] deals with cells of rat pituitary glands. Kind of test: in vitro radioimmunoassays of growth hormone release from cultured rat pituitary cells, side-by-side with somatostatin-14. The test is classed as cell-based. To be noted: comparative testing in rat pituitary cell cultures. As to the method:
To determine the effectiveness of the peptides to inhibit the release of insulin, in vitro radioimmunoassays are carried out using aSS-28, [Lys^23 ]-aSS-28 and aSS(15-28) in side-by-side comparison with equimolar concentrations of somotostatin-14 having a known effectiveness to inhibit the release of growth hormone induced by the application of isobutyl methyl xanthine to pituitary cells. Cultures are used which include cells of rat pituitary glands removed some four to five days previously in a system that minimizes enzymatic degradation, generally following the procedure set forth in Vale et al., Methods in Enzymology, Hormones and Cyclic Nucleotides (1975) Vol. 37, p. 82. Both cultures of a defined standard medium and cultures which are considered optimal for the secretion of growth hormone, as a result of having additions of either 2% or 10% of serum from a foetal calf, are used for the comparative testing.

Where a SMILES comes first, the peptide text is derived from it. Bridges are numbered along the chain shown (N, C = ends).

In the case of somatostatin-28 [SS-28], the “potency when administered in vivo” value in test [1] is reported as “increased potency”.

`CC(C)C[C@H](NC(=O)[C@H](CC(N)=O)NC(=O)[C@H](CC(N)=O)NC(=O)[C@@H](NC(=O)[C@H](CO)NC(=O)[C@H](CC(=O)O)NC(=O)[C@@H](NC(=O)[C@@H](N)CO)C(C)C)[C@@H](C)O)C(=O)N1CCC[C@H]1C(=O)N1CCC[C@H]1C(=O)N[C@@H](CCCNC(=N)N)C(=O)N[C@@H](CCC(=O)O)C(=O)N[C@@H](CCCNC(=N)N)C(=O)N[C@@H](CCCCN)C(=O)N[C@@H](C)C(=O)NCC(=O)N[C@H]1CSSC[C@@H](C(=O)O)NC(=O)[C@H](CO)NC(=O)[C@H]([C@@H](C)O)NC(=O)[C@H](Cc2ccccc2)NC(=O)CNC(=O)[C@H](CCCCN)NC(=O)[C@H](Cc2c[nH]c3ccccc23)NC(=O)[C@H](Cc2ccc(O)cc2)NC(=O)[C@H](Cc2ccccc2)NC(=O)[C@H](CC(N)=O)NC(=O)[C@H](CCCCN)NC1=O` [[Lys^23]-aSS-28] (H-SVDSTNNLPPRERKAGCKNFYWKGFTSC-OH; disulfide 17-28): the “biological activity / potency relative to aSS-28” value in test [2] was “similarly biologically active although having somewhat lower potencies”.
